Tested on: up-regulation of ICAM-1 (CD54) by IFNγ in U937 human monocytic cells
Assay: U937 IFNγ ICAM1 FACS Assay
Type: cell-based
Settings: U937 cells stimulated with IFNγ; ICAM-1 expression by FACS; read-out: IC50, Example 44
How it was run: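 U937 cells in 10% FCS RPMI were preincubated 30 min at 37 °C with an 8-point, 3-fold compound dilution series in duplicate, then stimulated with IFNγ for 18–24 h. Surface ICAM-1 was stained with APC anti-ICAM-1 and read by flow cytometry as geometric mean on live-gated cells. EC50 was derived.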

Row | Compound | IC50
1 | NS(=O)(=O)c1cccc(Nc2ncc(F)c(Nc3ccc(SCc4cccnc4)cc3)n2)c1 [Compound I-192, N2-(3-Aminosulfonylphenyl)-5-fluoro-N4-[4-(3-pyridinyl)-methylenethiophenyl]-2,4-pyrimidinediamine] | 978 nM
2 | CCN(CC)CCNS(=O)(=O)c1ccc(Nc2ncc(F)c(Nc3ccc(OCc4ccccn4)cc3)n2)cc1 [Compound I-165, N2-[4-(2-N,N-Diethylaminoethyl)aminosulfonylphenyl)-5-fluoro-N4-[4-(2-pyridinyl)methyleneoxyphenyl]-2,4-pyrimidinediamine] | 1640 nM
3 | C[Si](C)(C)C#Cc1cnc(Nc2cccc(S(N)(=O)=O)c2)nc1Nc1ccc(OCC#N)cc1 [Compound I-15, N2-(3-Aminosulfonylphenyl)-N4-(4-cyanomethyleneoxyphenyl)-5-trimethylsilylacetylene-2,4-pyrimidinediamine] | 4970 nM
4 | CC(C)c1ccc(Nc2ncc(F)c(Nc3ccc(OCC#N)cc3)n2)cc1S(N)(=O)=O [Compound I-8, N2-(3-Aminosulfonyl-4-iso-propylphenyl)-N4-(4-cyanomethyleneoxyphenyl)-5-fluoro-2,4-pyrimidinediamine] | 410 nM
5 | N2-(3-Aminosulfonyl-4-methylphenyl)-5-fluoro-N4-[4-(2-pyridinyl)-3-fluoromethyleneoxyphenyl]-2,4-pyrimidinediamine [Compound I-172] | 1100 nM
6 | Cc1ccc(Nc2ncc(F)c(Nc3ccc4c(c3)CN(C(=O)N(C)C)CC4)n2)cc1S(N)(=O)=O [VII-18, N2-(3-Aminosulfonyl-4-methylphenyl)-5-fluoro-N4-[2-(dimethylaminocarbonyl)-1,2,3,4-tetrahydroisoquin-7-yl]-2,4-pyrimidinediamine] | 1290 nM
7 | CCN(CC)CCNS(=O)(=O)c1ccc(Nc2ncc(F)c(Nc3ccc(OCc4cccnc4)cc3)n2)cc1 [Compound I-191, N2-[4-(2-N,N-Diethylaminoethyl)aminosulfonylphenyl)-5-fluoro-N4-[4-(3-pyridinyl)methyleneoxyphenyl]-2,4-pyrimidinediamine] | 796 nM
8 | CN1CCN(c2ccc(Nc3ncc(F)c(Nc4ccc(OCC#N)c(F)c4)n3)cc2S(N)(=O)=O)CC1 [Compound I-10, N2-[3-Aminosulfonyl-4-(4-methylpiperazine-1-yl)phenyl]-5-fluoro-N4-(4-cyanomethyleneoxy-3-fluorophenyl)-2,4-pyrimidinediamine] | 261 nM
9 | CCS(=O)(=O)N1CCc2cc(Nc3nc(Nc4ccc(S(N)(=O)=O)cc4)ncc3F)ccc2C1 [VII-13, N2-(4-aminosulfonyl)phenyl-N4-[(N-ethylsulfonyl)-1,2,3,4-tetrahydroisoquinolin-6-yl]-5-fluoro-2,4-pyrimidinediamine] | 1290 nM
10 | N#CCn1ccc2cc(Nc3nc(Nc4ccc(Cl)c(S(N)(=O)=O)c4)ncc3F)ccc21 [IX-7, N2-(3-Aminosulfonyl-4-chlorophenyl)-N4-(1-cyanomethyleneindol-5-yl)-5-fluoro-2,4-pyrimidinediamine] | 4730 nM
11 | COCCOc1ccc(Nc2nc(Nc3ccc(Cl)c(S(N)(=O)=O)c3)ncc2F)cc1 [VI-111, N2-(3-Aminosulfonyl-4-chlorophenyl)-5-fluoro-N4-[4-(2-methoxyethyleneoxy)phenyl]-2,4-pyrimdinediamine] | 3430 nM
12 | CNS(=O)(=O)c1cc(Nc2ncc(F)c(Nc3ccc(OCc4cccnc4)cc3)n2)ccc1C [Compound I-190, 5-Fluoro-N2-[3-(N-methylaminosulfony)-4-methylphenyl]-5-fluoro-N4-[4-(3-pyridinyl)methyleneoxyphenyl]-2,4-pyrimidinediamine] | 1500 nM
13 | Cc1ccc(Nc2ncc(Br)c(Nc3ccc(OCC#N)cc3)n2)cc1S(N)(=O)=O [Compound I-14, N2-(3-Aminosulfonyl-4-methylphenyl)-5-bromo-N4-(4-cyanomethyleneoxyphenyl)-2,4-pyrimidinediamine] | 41.8 nM
14 | CNS(=O)(=O)c1cc(Nc2ncc(C)c(Nc3ccc(OCc4ccccn4)cc3)n2)ccc1C [Compound I-180, 5-Methyl-N2-[3-(N-methylaminosulfony)-4-methylphenyl]-N4-[4-(2-pyridinyl)methyleneoxyphenyl]-2,4-pyrimidinediamine] | 456 nM
15 | Cc1cc(COc2ccc(Nc3nc(Nc4ccc(C)c(S(N)(=O)=O)c4)ncc3F)cc2)n(Cc2ccccc2)n1 [Compound I-199, N2-(3-Aminosulfonyl-4-methylphenyl)-N4-[4-(1-benzyl-3-methyl-(1H)-pyrazol-5-yl)methyleneoxyphenyl]-5-fluoro-2,4-pyrimidinediamine] | 2690 nM
16 | CCS(=O)(=O)N1CCc2cc(Nc3nc(Nc4ccc(C)c(S(N)(=O)=O)c4)ncc3F)ccc2C1 [VII-15, N2-(3-aminosulfonyl-4-methyl)phenyl-N4-[(N-ethylsulfonyl)-1,2,3,4-tetrahydroisoquinolin-6-yl]-5-fluoro-2,4-pyrimidinediamine] | 568 nM
17 | Cc1cc(COc2ccc(Nc3nc(Nc4ccc(C)c(S(N)(=O)=O)c4)ncc3F)cc2)n(C)n1 [Compound I-198, N2-(3-Aminosulfonyl-4-methylphenyl)-N4-[4-(1,3-dimethyl-(1H)-pyrazol-5-yl)methyleneoxyphenyl]-5-fluoro-2,4-pyrimidinediamine] | 805 nM
18 | CC(Oc1ccc(Nc2nc(Nc3cccc(S(N)(=O)=O)c3)ncc2F)cc1)C(N)=O (racemic) [Compound I-117, Racemic N4-[4-(1-Aminocarbonyl)ethoxy]phenyl-N2-(3-aminosulfonyl)phenyl-5-fluoro-2,4-pyrimidinediamine] | 14600 nM
19 | N2-[3-Aminosulfonyl-4-(4-methylpiperazine-1-yl)phenyl]-N4-(3-cyanomethylene-1H-indol-7-yl)-5-fluoro-2,4-pyrimidinediamine [IX-18] | 6660 nM
20 | N#CCOc1ccc(Nc2nc(Nc3cccc(S(N)(=O)=O)c3)ncc2Br)cc1 [Compound I-13, N2-(3-Aminosulfonylphenyl)-5-bromo-N4-(4-cyanomethyleneoxyphenyl)-2,4-pyrimidinediamine] | 43.5 nM
21 | Cc1ccc(Nc2ncc(F)c(Nc3ccc4c(c3)CC(C(=O)N(C)C)O4)n2)cc1S(N)(=O)=O (racemic) [VII-26, Racemic N2-(3-Aminosulfonyl-4-methylphenyl)-N4-[2-(N,N-dimethylaminocarbonyl)-2,3-dihydrobenzofuran-5-yl]-5-fluoro-2,4-pyrimidinediamine] | 9260 nM
22 | Cc1ccc(Nc2ncc(F)c(Nc3cc(C)c(OCC(N)=O)c(C)c3)n2)cc1S(N)(=O)=O [Compound I-96, N4-(4-Aminocarbonylmethoxy-3,5-dimethyl)phenyl-N2-(3-aminosulfonyl-4-methyl)phenyl-5-fluoro-2,4-pyrimidinediamine] | 3300 nM
23 | CN1C(=O)C(C)(C)Oc2cc(Nc3nc(Nc4cccc(S(N)(=O)=O)c4)ncc3F)cnc21 [VII-42, N2-(3-Aminosulfonylphenyl)-N4-[2,2,4-trimethyl-3-oxo-5-pyrid[1,4]oxazin-7-yl]-5-fluoro-2,4-pyrimidinediamine] | 45500 nM
24 | CNS(=O)(=O)c1cc(Nc2ncc(F)c(Nc3ccc4c(c3)CCN4S(C)(=O)=O)n2)ccc1C [VII-62, 5-Fluoro-N2-[3-(N-methylaminosulfony)-4-methylphenyl]-N4-[4-(1-methylsulfonyl)indolin-5-yl]-2,4-pyrimidinediamine] | 496 nM

Reference: patent US11827628B2, “Compositions and methods for inhibition of the JAK pathway” (Rigel Pharmaceuticals, Inc., priority 2005, dated 2023)
